# Measured values published in patent US20240294572A1, “Antimicrobial Peptides” (priority 2021, published 2024).
# Residues, ends and D or L forms follow the SMILES beside them. *: point of attachment. Decanoyl = CCCCCCCCCC(=O)*
# Key:
# Assay in all cases: Mass spectrometry of mouse plasma proteins bound to bead-immobilized peptide
# Type in all cases: binding
# Details in all cases: intensity bound to L-form / D-form of C10-KR8
# [1] = biological target: T1, Apolipoprotein E (P08226) (Mus musculus, UniProt P08226)
# T1 construct: incubated with 5% mouse plasma; from tissue; host or cells: mouse plasma (5%)
# T1 sequence (P08226 19-311): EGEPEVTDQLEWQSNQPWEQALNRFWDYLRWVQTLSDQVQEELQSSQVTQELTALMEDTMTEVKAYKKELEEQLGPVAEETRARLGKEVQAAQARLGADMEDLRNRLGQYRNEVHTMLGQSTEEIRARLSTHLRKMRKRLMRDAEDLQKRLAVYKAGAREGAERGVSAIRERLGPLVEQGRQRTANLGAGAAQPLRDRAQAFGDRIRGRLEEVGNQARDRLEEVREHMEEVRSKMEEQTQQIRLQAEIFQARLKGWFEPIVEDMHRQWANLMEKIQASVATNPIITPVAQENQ
# Description: (§1) Dynabeads M-370 amine (2×10^9 beads/mL, 50 μL; Thermo Fisher Scientific) were washed 3 times in sterile PBS (1 mL; GIBCO) and reacted with a bifunctional SM(PEG)4 cross-linker (5 mg/mL in DMSO) containing N-hydroxysuccinimide (NHS) ester and maleimide functional groups. A stable covalent bond between the amino group of beads and the NHS ester of the cross-linker was formed in PBS at pH 7.2 at room temperature for 24 hours with shaking at 80 rpm. The beads were then washed six times with PBS to remove nonreacted cross-linker. Next, peptide C10-KR8 (with a cysteine at the N-terminus) at 5 mg/mL was reacted with the free maleimide group in PBS for 24 hours at room temperature with shaking at 80 rpm. Another round of washing was conducted to remove the nonreacted peptides. Both the L-and D-forms of the peptide were coupled in the same manner. A portion of the beads without peptide coupling was saved as a control.
# (§2) For serum binding experiments, the beads were resuspended in 500 μL of PBS; 200-μL aliquots of the coated and control dynabead were incubated with 5% mouse plasma for 18 hours at 37° C. After binding, the beads were washed six times with PBS to remove unbound proteins. Finally, the beads were suspended in 50 μL of PBS for mass spectrophotometric analysis to identify peptide-binding partners.
# (§3) The samples were reduced by 10 mM dithiothreitol (DTT) and incubated for 30 minutes at 56° C. and back to room temperature. A final concentration of 50 mM iodoacetamide was added to alkylate free cysteines followed by further incubation for 20 min in the dark. Bound proteins were enzymatically digested by trypsin (4 μL of 0.5 μg/mL) overnight. A 60 […] portion was transferred to a new Eppendorf® tube and dried for 2 hours. The samples were then dissolved in 20 μL of 2% acetonitrile with 0.1% formic acid before being loaded to Q-tip columns (Pepclean, C18 spin column). Column was activated by pipetting in and out (4× times), 10 μL of 70% acetonitrile with 0.1% formic acid, and equilibrating with the same volume of 2% acetonitrile with 0.1% formic acid. Binding of the samples was done by mixing more than 10 × times, followed by washing in the same buffer (2% acetonitrile with 0.1% formic acid). The bound peptides were then eluted with 20 μL of 70% acetonitrile with 0.1% formic acid. Samples were subjected to LC-MS analysis after being suspended in the desired buffer.
# (§4) Extracted peptides were resuspended in 2% acetonitrile (ACN) and 0.1% formic acid (FA) and loaded onto trap column Acclaim™ PepMap™ 100 75 μm×2 cm C18 LC Columns (Thermo Scientific) at a flow rate of 4 μL/minute. These were then separated with a Thermo RSLC UltiMate™ 3000 on a Thermo Easy-Spray PepMap™ M RSLC C18 75 μm×50 cm C-18 2 μm column (Thermo Scientific) with a step gradient of 4-25% solvent B (0.1% FA in 80% ACN) from 10 to 37 minutes and 25-45% solvent B for 37-46 minutes at 300 nL/min and 50° C. with a 70 minute total run time. Eluted peptides were analyzed by a Thermo Orbitrap Fusion™ Lumos™ Tribrid™ (Thermo Scientific) mass spectrometer in a data dependent acquisition mode. A survey full scan MS (from m/z 350-1800) was acquired in the orbitrap with a resolution of 120000. The AGC target for MS1 was set as 4×10^5 and the ion filling time set as 100 ms. The most intense ions with charge state 2-6 were isolated in 3 second cycle and fragmented using HCD fragmentation with 40% normalized collision energy and detected at a mass resolution of 30000 at 200 m/z. The AGC target for MS/MS was set as 5×10^4 and ion filling time set 60 ms dynamic exclusion was set for 30 seconds with a 10 ppm mass window. Protein identification was performed by searching MS/MS data against the Swiss-Prot mouse protein database. The search was set up for full tryptic peptides with a maximum of two missed cleavage sites. Acetylation of protein N-terminus and oxidized methionine were included as variable modifications, and carbamidomethylation of cysteine was set as fixed modification. […]
# [2] = biological target: T2, Apolipoprotein A-II (P09813) (Mus musculus, UniProt P09813)
# T2 construct: incubated with 5% mouse plasma; from tissue; host or cells: mouse plasma (5%)
# T2 sequence (P09813 19-102): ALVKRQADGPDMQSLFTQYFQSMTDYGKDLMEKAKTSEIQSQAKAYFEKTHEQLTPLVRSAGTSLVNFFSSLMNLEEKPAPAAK
# Description: as §1, §2, §3, §4
# [3] = biological target: T3, Apolipoprotein A-IV (P06728) (Mus musculus, UniProt P06728)
# T3 construct: incubated with 5% mouse plasma; from tissue; host or cells: mouse plasma (5%)
# T3 sequence (P06728 21-395): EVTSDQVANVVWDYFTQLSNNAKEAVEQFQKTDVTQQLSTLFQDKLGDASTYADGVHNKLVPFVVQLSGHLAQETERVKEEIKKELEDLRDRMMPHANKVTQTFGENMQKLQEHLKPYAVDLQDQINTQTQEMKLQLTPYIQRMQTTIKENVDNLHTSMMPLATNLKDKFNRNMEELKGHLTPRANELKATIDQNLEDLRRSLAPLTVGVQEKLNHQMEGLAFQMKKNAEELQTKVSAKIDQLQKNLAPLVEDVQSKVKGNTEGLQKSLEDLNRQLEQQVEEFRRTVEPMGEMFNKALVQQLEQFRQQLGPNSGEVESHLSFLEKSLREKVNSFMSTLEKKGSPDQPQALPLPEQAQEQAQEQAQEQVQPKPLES
# Description: as §1, §2, §3, §4
# Serum albumin (P07724) = biological target: T4, Serum albumin (P07724) (Mus musculus, UniProt P07724)
# T4 construct: incubated with 5% mouse plasma; from tissue; host or cells: mouse plasma (5%)
# T4 sequence (P07724 25-608): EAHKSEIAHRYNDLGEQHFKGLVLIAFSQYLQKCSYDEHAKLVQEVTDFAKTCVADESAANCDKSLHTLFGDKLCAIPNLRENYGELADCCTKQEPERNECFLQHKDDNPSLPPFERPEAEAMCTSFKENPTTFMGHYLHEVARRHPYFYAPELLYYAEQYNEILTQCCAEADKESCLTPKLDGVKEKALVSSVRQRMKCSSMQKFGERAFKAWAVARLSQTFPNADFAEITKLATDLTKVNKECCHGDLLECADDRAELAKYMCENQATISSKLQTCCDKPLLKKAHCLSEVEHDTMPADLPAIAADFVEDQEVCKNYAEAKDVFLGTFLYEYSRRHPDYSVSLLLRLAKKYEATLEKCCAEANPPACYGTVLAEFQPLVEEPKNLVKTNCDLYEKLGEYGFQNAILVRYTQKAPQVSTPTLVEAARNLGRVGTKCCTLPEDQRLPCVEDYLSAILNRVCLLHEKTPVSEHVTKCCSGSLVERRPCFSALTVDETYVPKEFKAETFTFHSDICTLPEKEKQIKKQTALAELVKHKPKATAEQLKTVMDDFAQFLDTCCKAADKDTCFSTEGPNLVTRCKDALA
# Description: as §1, §2, §3, §4
# [4] = biological target: T5, Apolipoprotein A-I (Q00623) (Mus musculus, UniProt Q00623)
# T5 construct: incubated with 5% mouse plasma; from tissue; host or cells: mouse plasma (5%)
# T5 sequence (Q00623 19-264): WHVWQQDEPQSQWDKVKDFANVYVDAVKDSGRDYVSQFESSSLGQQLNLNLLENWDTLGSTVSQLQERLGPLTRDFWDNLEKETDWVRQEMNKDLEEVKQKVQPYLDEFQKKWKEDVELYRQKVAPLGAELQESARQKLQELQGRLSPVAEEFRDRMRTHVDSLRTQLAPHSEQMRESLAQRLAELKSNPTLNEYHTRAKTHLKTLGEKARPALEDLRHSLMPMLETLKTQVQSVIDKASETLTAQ
# Description: as §1, §2, §3, §4
# [5] = biological target: T6, Apolipoprotein C-I (P34928) (Mus musculus, UniProt P34928)
# T6 construct: incubated with 5% mouse plasma; from tissue; host or cells: mouse plasma (5%)
# T6 sequence (P34928 27-88): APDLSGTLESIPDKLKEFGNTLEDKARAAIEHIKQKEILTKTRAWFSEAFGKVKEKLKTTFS
# Description: as §1, §2, §3, §4
smiles,measurement,setting,value
CCCCCCCCCC(=O)N[C@@H](CCCCN)C(=O)N[C@@H](CCCNC(=N)N)C(=O)N[C@H](C(=O)N[C@@H](Cc1c[nH]c2ccccc12)C(=O)N[C@@H](CCC(N)=O)C(=O)N[C@@H](CCCNC(=N)N)C(=O)N[C@H](C(=O)N[C@@H](CCCCN)C(N)=O)[C@@H](C)CC)[C@@H](C)CC [Peptide C10-KR8] (Decanoyl-KRIWQRIK-NH2),"L/D Ratio, Apolipoprotein E",[1],0.811
same,"L/D Ratio, Apolipoprotein A-II",[2],0.00147
same,"L/D Ratio, Apolipoprotein A-IV",[3],2.89
same,"L/D Ratio, Serum albumin",Serum albumin (P07724),2.28
same,"L/D Ratio, Apolipoprotein A-I",[4],3.54
same,"L/D Ratio, Apolipoprotein C-I",[5],2.08
